According to patent US11986471B2, “Compounds and methods of use” (Tango Therapeutics, Inc., priority 2018, dated 2024):

Key:
HAP1 MTAP-deleted = experiment: SDMA in-cell western assay, HAP1 MTAP-deleted cell line; type: cell-based; details: for IC50: Homo sapiens, HAP1 MTAP-deleted cell line; for MTAP Intact/Deleted Ratio: IC50 ratio HAP1 MTAP-intact / HAP1 MTAP-deleted
Procedure, shortened: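 MTAP-null HAP1 cells, the deleted member of an isogenic pair with endogenously MTAP-expressing HAP1, are treated with compound. SDMA is then quantified by in-cell western and an IC50 is calculated.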

PRMT5 [1] = target: T1, PRMT5 (Homo sapiens, UniProt O14744); experiment: PRMT5 IC50 assay with no cofactor; type: biochemical
T1 construct: purchased Viva (custom protein)
Procedure, shortened: (§1)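 Potency against PRMT5 is compared across cofactor states, where IC50 equals Ki×1.5 with SAM present and Ki×13.5 with MTA present.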

HAP1 MTAP-intact = experiment: SDMA in-cell western assay, HAP1 MTAP-intact cell line; type: cell-based; details: Homo sapiens
Procedure, shortened: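 Cells from two matched HAP1 lines, MTAP-null and MTAP-expressing at endogenous levels, are treated with compound. SDMA is then quantified by in-cell western and an IC50 is calculated for each line.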

PRMT5 [2] = target: T1, PRMT5; experiment: PRMT5 IC50 assay in the presence of SAM as cofactor; type: biochemical
Procedure, shortened: as §1

PRMT5 [3] = target: T1, PRMT5; experiment: PRMT5 IC50 assay in the presence of MTA as cofactor; type: biochemical; details: for IC50: PRMT5, MTA as cofactor
Procedure, shortened: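 IC50 against PRMT5 determined with SAM as cofactor, with no cofactor, and with MTA as cofactor. Ki derived as IC50/1.5 for the SAM assay and IC50/13.5 for the MTA assay; SAM Ki to MTA Ki ratio also reported.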

[4] = ratio between Ki in the presence of SAM and Ki in the presence of MTA
[5] = ratio between the Ki in the presence of SAM and the Ki in the presence of MTA

T1 sequence (O14744 whole entry): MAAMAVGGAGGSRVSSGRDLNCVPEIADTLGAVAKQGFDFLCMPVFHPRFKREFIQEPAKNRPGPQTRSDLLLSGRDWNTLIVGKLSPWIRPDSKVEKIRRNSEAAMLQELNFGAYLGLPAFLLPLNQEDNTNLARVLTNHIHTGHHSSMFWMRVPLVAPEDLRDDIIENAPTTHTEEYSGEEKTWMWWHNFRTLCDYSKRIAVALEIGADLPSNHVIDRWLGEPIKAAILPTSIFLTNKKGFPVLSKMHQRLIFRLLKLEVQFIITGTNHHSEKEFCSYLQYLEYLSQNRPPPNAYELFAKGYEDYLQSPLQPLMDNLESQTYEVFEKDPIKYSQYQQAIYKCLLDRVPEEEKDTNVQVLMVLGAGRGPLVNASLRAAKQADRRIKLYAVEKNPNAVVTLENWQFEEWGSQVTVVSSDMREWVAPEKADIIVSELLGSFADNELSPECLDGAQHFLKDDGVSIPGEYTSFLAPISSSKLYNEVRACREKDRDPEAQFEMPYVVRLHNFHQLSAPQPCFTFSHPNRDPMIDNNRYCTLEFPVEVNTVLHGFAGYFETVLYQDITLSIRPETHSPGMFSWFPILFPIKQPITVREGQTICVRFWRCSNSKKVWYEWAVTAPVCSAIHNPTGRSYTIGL
T1 sequence (Q9BQA1 whole entry partner): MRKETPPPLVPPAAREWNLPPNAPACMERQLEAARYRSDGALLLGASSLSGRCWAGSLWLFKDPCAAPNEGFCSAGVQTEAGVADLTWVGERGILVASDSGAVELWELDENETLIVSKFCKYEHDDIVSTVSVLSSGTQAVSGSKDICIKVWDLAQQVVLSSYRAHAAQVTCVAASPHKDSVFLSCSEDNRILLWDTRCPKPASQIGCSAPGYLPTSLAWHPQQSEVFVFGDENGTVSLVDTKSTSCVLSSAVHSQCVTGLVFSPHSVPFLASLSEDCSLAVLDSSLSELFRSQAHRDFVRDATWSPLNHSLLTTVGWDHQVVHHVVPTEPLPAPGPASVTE

Row | Structure (SMILES) | IC50 (HAP1 MTAP-deleted) [nM] | MTAP Intact/Deleted Ratio (HAP1 MTAP-deleted) | IC50 (PRMT5 [1]; read-out: No Co-factor IC50) [nM] | IC50 (HAP1 MTAP-intact) [nM] | IC50 (PRMT5 [2]) [nM] | IC50 (PRMT5 [3]) [nM] | SAM/MTA Ratio (PRMT5 [3]; [4]) | IC50 (PRMT5 [1]) [nM] | SAM/MTA Ratio (PRMT5 [3]; [5])
1 | CCC(=O)N1CCN(c2nc(NC3COC3)cc(C(=O)NC[C@H](O)CN3CCc4cc(OCc5cnco5)ccc4C3)n2)CC1 [Compound 309, (S)—N-(2-hydroxy-3-(6-(oxazol-5-ylmethoxy)-3,4-dihydroisoquinolin-2(1H)-yl)propyl)-6-(oxetan-3-ylamino)-2-(4-propionylpiperazin-1-yl)pyrimidine-4-carboxamide] | 1000 to 10000 | C* (an IC50 ratio of less than 3 fold between the IC50 in the HAP1 MTAP-intact cell line and the HAP1 MTAP-deleted cell line) | 500 to 5000 | ≥ 10000 | 50 to 500 | 50 to 500 | A (a Ki ratio greater than or equal to 10 fold between the Ki in the presence of SAM and the Ki in the presence of MTA) |  | 
2 | CC(=O)N1CCN(c2nc(NC3COC3)cc(C(=O)NC[C@H](O)CN3CCc4c(ccc(OCc5cnco5)c4Cl)C3)n2)CC1 [Compound 300, (S)-2-(4-acetylpiperazin-1-yl)-N-(3-(5-chloro-6-(oxazol-5-ylmethoxy)-3,4-dihydroisoquinolin-2(1H)-yl)-2-hydroxypropyl)-6-(oxetan-3-ylamino)pyrimidine-4-carboxamide] | ≥ 10000 | C* (an IC50 ratio of less than 3 fold between the IC50 in the HAP1 MTAP-intact cell line and the HAP1 MTAP-deleted cell line) | 500 to 5000 | ≥ 10000 | 50 to 500 | 50 to 500 | A (a Ki ratio greater than or equal to 10 fold between the Ki in the presence of SAM and the Ki in the presence of MTA) |  | 
3 | O=C(NC[C@H](O)CN1CCc2c(ccc(OCc3cnco3)c2Cl)C1)c1ccc(OC2CCOCC2)cc1 [Compound 482, (S)—N-(3-(5-chloro-6-(oxazol-5-ylmethoxy)-3,4-dihydroisoquinolin-2(1H)-yl)-2-hydroxypropyl)-4-((tetrahydro-2H-pyran-4-yl)oxy)benzamide] | ≥ 10000 | C* (an IC50 ratio of less than 3 fold between the IC50 in the HAP1 MTAP-intact cell line and the HAP1 MTAP-deleted cell line) |  | ≥ 10000 | 500 to 5000 | 500 to 5000 |  | ≥ 5000 | A (a Ki ratio greater than or equal to 10 fold between the Ki in the presence of SAM and the Ki in the presence of MTA)
4 | O=C(NC[C@H](O)CN1CCc2c(ccc(OCc3cnco3)c2Br)C1)c1cc(NC2CCC2)ncn1 [Compound 361, (S)—N-(3-(5-bromo-6-(oxazol-5-ylmethoxy)-3,4-dihydroisoquinolin-2(1H)-yl)-2-hydroxypropyl)-6-(cyclobutylamino)pyrimidine-4-carboxamide] | ≥ 10000 | C* (an IC50 ratio of less than 3 fold between the IC50 in the HAP1 MTAP-intact cell line and the HAP1 MTAP-deleted cell line) | ≥ 5000 | ≥ 10000 | 500 to 5000 | 500 to 5000 | A (a Ki ratio greater than or equal to 10 fold between the Ki in the presence of SAM and the Ki in the presence of MTA) |  | 
5 | CC(=O)N1CCC(Nc2cc(C(=O)NC[C@H](O)CN3CCc4cc(OCc5ocnc5C)ccc4C3)nc(N3CCCCC3)n2)CC1 [Compound 647] | < 1000 | B* (an IC50 ratio greater than or equal to 3 fold but lower than 10 fold between the IC50 in the HAP1 MTAP-intact cell line and the HAP1 MTAP-deleted cell line) | 50 to 500 | < 1000 | 50 to 500 | < 50 | A (a Ki ratio greater than or equal to 10 fold between the Ki in the presence of SAM and the Ki in the presence of MTA) |  | 
6 | CCCN(C)c1cc(C(=O)NC[C@H](O)CN2CCc3cc(OCc4cnco4)ccc3C2)cc(NC2CCC2)n1 [Compound 415] | < 1000 | C* (an IC50 ratio of less than 3 fold between the IC50 in the HAP1 MTAP-intact cell line and the HAP1 MTAP-deleted cell line) | 500 to 5000 | 1000 to 10000 | 50 to 500 | 50 to 500 | A (a Ki ratio greater than or equal to 10 fold between the Ki in the presence of SAM and the Ki in the presence of MTA) |  | 
7 | O=C(NC[C@H](O)CN1CCc2cc(OCc3cnco3)ccc2C1)c1cncc(NC2CCC2)c1 [Compound 270, (S)-5-(cyclobutylamino)-N-(2-hydroxy-3-(6-(oxazol-5-ylmethoxy)-3N-dihydroisoquinolin-2(1H)-yl)propyl)nicotinamide] | < 1000 | C* (an IC50 ratio of less than 3 fold between the IC50 in the HAP1 MTAP-intact cell line and the HAP1 MTAP-deleted cell line) | 500 to 5000 | < 1000 | 50 to 500 | 50 to 500 | A (a Ki ratio greater than or equal to 10 fold between the Ki in the presence of SAM and the Ki in the presence of MTA) |  | 
8 | CCCN(C)c1nc(NC2COC2)cc(C(=O)NC[C@H](O)CN2CCc3c(ccc(OCc4cnco4)c3Cl)C2)n1 [Compound 312, (S)—N-(3-(5-chloro-6-(oxazol-5-ylmethoxy)-3N-dihydroisoquinolin-2(1H)-yl)-2-hydroxypropyl)-2-(methyl(propyl)amino)-6-(oxetan-3-ylamino)pyrimidine-4-carboxamide] | 1000 to 10000 | B* (an IC50 ratio greater than or equal to 3 fold but lower than 10 fold between the IC50 in the HAP1 MTAP-intact cell line and the HAP1 MTAP-deleted cell line) | 500 to 5000 | ≥ 10000 | 50 to 500 | 50 to 500 | A (a Ki ratio greater than or equal to 10 fold between the Ki in the presence of SAM and the Ki in the presence of MTA) |  | 
9 | Cc1c(OCc2cnco2)ccc2c1CCN(C[C@@H](O)CNC(=O)c1cc(NC3CCCC3)ncn1)C2 [Compound 393, 6-(cyclopentylamino)-N-[(2S)-2-hydroxy-3-{5-methyl-6-[(1,3-oxazol-5-yl)methoxy]-1,2,3,4-tetrahydroisoquinolin-2-yl}propyl]pyrimidine-4-carboxamide] | ≥ 10000 | C* (an IC50 ratio of less than 3 fold between the IC50 in the HAP1 MTAP-intact cell line and the HAP1 MTAP-deleted cell line) | ≥ 5000 | ≥ 10000 | 500 to 5000 | 500 to 5000 | A (a Ki ratio greater than or equal to 10 fold between the Ki in the presence of SAM and the Ki in the presence of MTA) |  | 
10 | COc1cnc(NC2CCC2)cc1C(=O)NC[C@H](O)CN1CCc2cc(OCc3ocnc3C)ccc2C1 [Compound 602] | 1000 to 10000 | C* (an IC50 ratio of less than 3 fold between the IC50 in the HAP1 MTAP-intact cell line and the HAP1 MTAP-deleted cell line) |  | 1000 to 10000 | 50 to 500 | 50 to 500 |  | 500 to 5000 | A (a Ki ratio greater than or equal to 10 fold between the Ki in the presence of SAM and the Ki in the presence of MTA)
11 | CC(=O)N1CC(Nc2cc(C(=O)NC[C@H](O)CN3CCc4cc(OCc5ocnc5C)ccc4C3)cc(N3CCCCC3)n2)C1 [Compound 634] | 1000 to 10000 | B* (an IC50 ratio greater than or equal to 3 fold but lower than 10 fold between the IC50 in the HAP1 MTAP-intact cell line and the HAP1 MTAP-deleted cell line) | 50 to 500 | 1000 to 10000 | 50 to 500 | < 50 | A (a Ki ratio greater than or equal to 10 fold between the Ki in the presence of SAM and the Ki in the presence of MTA) |  | 
12 | Cc1c(OCc2cnco2)ccc2c1CCN(C[C@@H](O)CNC(=O)c1cc(N[C@H]3CC[C@H](C(=O)N4CCCCC4)CC3)ncn1)C2 [Compound 589, N-[(2S)-2-hydroxy-3-{5-methyl-6-[(1,3-oxazol-5-yl)methoxy]-1,2,3,4-tetrahydroisoquinolin-2-yl}propyl]-6-{((1r,4r)-4-(piperidine-1-carbonyl)cyclohexyl]amino}pyrimidine-4-carboxamide] | < 1000 | A* (an IC50 ratio greater than or equal to 10 fold between the IC50 in the HAP1 MTAP-intact cell line and the HAP1 MTAP-deleted cell line) |  | ≥ 10000 | 50 to 500 | 50 to 500 |  | 500 to 5000 | A (a Ki ratio greater than or equal to 10 fold between the Ki in the presence of SAM and the Ki in the presence of MTA)
